Drawing on patent publication US8703723B2, “Glycoside compounds and pharmaceutical compositions thereof” (Centrose, LLC, priority 2009, dated 2014), this text covers IC50 for 3 compounds.

Like-named read-outs stand apart in the source and are kept apart here.

For experiment [1], the system named is A549 (NSCLC) cell line. The conditions noted are these: footnote 2: data from Langenhan et al. 2005; cited from earlier work.
Experiment [2] deals with HT29 (Colorectal) cell line. Put plainly: Cancer cell cytotoxicity assay (Calcein AM / Cell Titer-Glo), HT29. Format: cell-based, human. The conditions noted are these: Colorectal. How it is done: (§1) Compounds of the invention and comparative compounds were assayed in three cancer cell lines to confirm cytotoxic activity and to set a range of concentrations to use in subsequent assays. All cell lines were maintained in RPMI medium 1640 supplemented with 10% (wt/vol) fetal bovine serum and penicillin-streptomycin (100 units/ml and 100 μg/ml). Cells were routinely checked for microbial or mycoplasma contamination and if necessary replaced. Cells were harvested by trypsinization using 0.25% trypsin and 0.1% EDTA and then counted in a ViCell XR coulter counter in duplicate, before and after dilution for assay plating. Between four to nine different types of human cancer cells were plated at a density of 10,000-15,000 cells per well of each 96-well black tissue culture treated microtiter plate, then were grown for 1 hour at 37° C. with 5% CO2/95% air in a humidified incubator to allow cells to attach before compound addition. Compound stocks (100×) were prepared in 96-well V-bottom polypropylene microtiter plates. Five serial (1:2) dilutions were made with anhydrous DMSO at 100× the final concentration used in the assay. The individual wells in compound-containing […] well plates were diluted 1:10 with complete cell culture medium and the 10× (10 μL) stocks were added to 90 μl of cells in each plate to ensure full mixing of stocks with culture media by using a Biomek FX liquid handler with 96-well head. Doxorubicin was used as the control to monitor the behavior of each cell line. Cells were incubated with the compounds for 3 to 4 days before fluorescence and luminescence reading. Test plates were removed from the incubator and washed once in sterile PBS to remove serum containing calcium esterases. Calcein AM (acetoxymethyl ester) reagent was added and the cells were incubated for 30 min at 37° C. Plates were read for emission by using a fluorescein filter (excitation 485 nm, emission 535 nm). An equal volume (30 μL) of Cell Titer-Glo reagent (Promega Corporation, Inc.) was added and incubated for 10 min at room temperature with gentle agitation to lyse the cells. Each plate was re-read for luminescence to confirm the inhibition observed in the fluorescent […] assay as a measure of cell viability. The cancer cell cytotoxicity assays were run in triplicate using ≧5 different drug concentrations, and the data were analyzed to establish statistical significance and a valid IC50 value for inhibition of cell growth, based on ≧2 log differences in drug effect.
(§2) The cancer cell cytotoxicities (determined substantially according to the method of Example 5) of various compounds of the invention and comparative compounds as determined in four to five different human cancer cell lines are shown in Table 1. The structures of the compounds listed are found in FIGS. 2-4.

Experiment [3] relates to SKOV3 (Ovarian) cell line. Put plainly: Cancer cell cytotoxicity assay (Calcein AM / Cell Titer-Glo), SKOV3. Format: cell-based, human. The conditions noted are these: Ovarian. How it is done: as §1, §2
The test system of experiment [4] is NCI-H460 (NSCLC) cell line. The conditions noted are these: footnote 2: data from Langenhan et al. 2005; cited from earlier work.
Experiment [5] has as its system A549 (NSCLC) cell line. The experiment can be described thus: Cancer cell cytotoxicity assay (Calcein AM / Cell Titer-Glo), A549. Format: cell-based, human. The conditions noted are these: NSCLC. How it is done: as §1, §2
The subject of another experiment is H1299 (NSCLC) cell line. The experiment can be described thus: Cancer cell cytotoxicity assay (Calcein AM / Cell Titer-Glo), H1299. The conditions noted are these: NSCLC. It is filed as cell-based, human. On the procedure: as §1, §2
The test system of experiment [6] is SKOV3 (Ovarian) cell line. The conditions noted are these: footnote 2: data from Langenhan et al. 2005; cited from earlier work.
For experiment [7], the system named is NCI-H460 (NSCLC) cell line. The experiment can be described thus: Cancer cell cytotoxicity assay (Calcein AM / Cell Titer-Glo), NCI-H460. The conditions noted are these: NSCLC. It is filed as cell-based, human. On the procedure: as §1, §2
[8] abbreviates: footnote 3: determined at same time as CEN07-117 and -121.
[9] abbreviates: footnote 5: determined at same time as CEN08-193.
The mark [10] stands for this setting: footnote 7: determined at same time as CEN08-180.
The mark [11] stands for this setting: footnote 4: determined at same time as CEN08-177 and -178.
Setting [12] is: footnote 6: determined at same time as CEN08-243 and -244.

As for `CON(C1CCC2(C)C(CCC3C2CCC2(C)C(C4=CC(=O)OC4)CCC32O)C1)C1OCC(O)C(O)C1O` [CEN07-W-102 (5S), reference compound], the 50% inhibitory concentration (IC50) was 33 nM with A549 (NSCLC) cell line [1]; 20 nM in experiment [2] (assay set not specified); 120 nM in experiment [2] (setting [8]); 7 nM in experiment [2] (setting [9]); 33 nM in experiment [2] (setting [10]); 310 nM in experiment [3] (assay set not specified). The 50% inhibitory concentration (IC50) is 40 nM in experiment [3] (setting [11]); 26 nM in experiment [3] (setting [9]); 25 nM in experiment [3] (setting [12]); 36 nM in experiment [3] (setting [10]); 53 nM in experiment [4]; 40 nM in the experiment on A549 (NSCLC) cell line [5] (setting [8]). Besides, the IC50 in the experiment with A549 (NSCLC) cell line [5] (setting [11]) is 10 nM; in the experiment on A549 (NSCLC) cell line [5] (setting [9]), 3 nM; in the experiment on A549 (NSCLC) cell line [5] (setting [12]), 17 nM; in the experiment on A549 (NSCLC) cell line [5] (setting [10]), 8 nM; in the experiment with H1299 (NSCLC) cell line (assay set not specified), 9 nM; in the experiment on H1299 (NSCLC) cell line (setting [8]), 110 nM. The IC50 is 20 nM in the experiment on H1299 (NSCLC) cell line (setting [11]); 6 nM with H1299 (NSCLC) cell line (setting [9]); 20 nM in the experiment on H1299 (NSCLC) cell line (setting [12]); 45 nM in experiment [6]; 110 nM in experiment [7] (setting [8]); 10 nM in experiment [7] (setting [11]). Also, the IC50 in experiment [7] (setting [9]) is 5 nM; in experiment [7] (setting [12]), 15 nM; in experiment [7] (setting [10]), 24 nM.

On to `C[C@H]1O[C@@H](O[C@H]2[C@@H](O)C[C@H](O[C@H]3[C@@H](O)C[C@H](O[C@H]4CC[C@@]5(C)[C@H](CC[C@@H]6[C@@H]5CC[C@]5(C)[C@@H](C7=CC(=O)OC7)CC[C@]65O)C4)O[C@@H]3C)O[C@@H]2C)C[C@H](O)[C@@H]1O` [Digitoxin], for which the IC50 in the experiment on A549 (NSCLC) cell line [1] was 280 nM; in experiment [4], 280 nM; in experiment [6], 700 nM.

Take `CON(C1CCC2(C)C(CCC3C2CCC2(C)C(C4=CC(=O)OC4)CCC32O)C1)C1OCC(O)C(O)C1O` [CEN07-W-101 (23S), reference compound]: the IC50 in the experiment with A549 (NSCLC) cell line [1] is 79 nM; in experiment [2] (setting [8]), 100 nM; in experiment [2] (setting [9]), 9 nM; in experiment [2] (setting [10]) it was 46 nM; in experiment [3] (setting [9]) it was 39 nM; in experiment [3] (setting [10]), 51 nM. The IC50 in experiment [4] is 80 nM; in the experiment with A549 (NSCLC) cell line [5] (setting [8]), 50 nM; in the experiment with A549 (NSCLC) cell line [5] (setting [9]), 4 nM; with A549 (NSCLC) cell line [5] (setting [10]), 9 nM; in the experiment with H1299 (NSCLC) cell line (assay set not specified), 17 nM; with H1299 (NSCLC) cell line (setting [8]) it was 170 nM. Further, the IC50 with H1299 (NSCLC) cell line (setting [9]) was 6 nM; in experiment [6], 220 nM; in experiment [7] (setting [8]) it was 150 nM; in experiment [7] (setting [9]), 8 nM; in experiment [7] (setting [10]), 37 nM.
